Data published in a compilation of properties of binary mixtures (doi:10.1021/acs.jpcc.9b07923).

Assay: xn = mol fraction of the nth substance listed
Settings: 100 kPa

Fc1ccccn1 + Fc1cccc[nH+]1.O=S(=O)([O-])C(F)(F)F
Settings	electrical conductivity [S/m]
242.2 K, x1 = 0.95	0.091
242.4 K, x1 = 0.5	0.0018
242.6 K, x1 = 0.86	0.075
244.9 K, x2 = 0.01	0.083
247.7 K, x1 = 0.9	0.109
251.9 K, x1 = 0.95	0.118
252.3 K, x1 = 0.86	0.113
252.8 K, x1 = 0.5	0.0037
254.7 K, x2 = 0.01	0.102
257.7 K, x1 = 0.9	0.168
262 K, x1 = 0.95	0.353
262.5 K, x2 = 0.01	0.12
262.6 K, x1 = 0.9	0.201
262.7 K, x1 = 0.86	0.161
267.6 K, x1 = 0.86	0.187
267.6 K, x1 = 0.9	0.24
271.8 K, x1 = 0.95	0.445
272.4 K, x1 = 0.9	0.279
272.5 K, x1 = 0.86	0.229
272.6 K, x2 = 0.01	0.137
272.7 K, x1 = 0.5	0.0132
277.5 K, x1 = 0.9	0.532
277.9 K, x1 = 0.86	0.295
282.6 K, x2 = 0.01	0.156
282.9 K, x1 = 0.86	0.408
287.4 K, x1 = 0.5	0.0369
287.7 K, x1 = 0.9	0.608
287.7 K, x2 = 0.01	0.161
292.1 K, x1 = 0.95	0.596
292.2 K, x1 = 0.5	0.0485
292.6 K, x1 = 0.86	0.658
296.9 K, x1 = 0.95	0.644
297.4 K, x1 = 0.5	0.0902
297.6 K, x1 = 0.86	0.711
297.6 K, x2 = 0.01	0.189
302.3 K, x1 = 0.5	0.185
302.5 K, x2 = 0.01	0.204
303 K, x1 = 0.86	0.769
303.3 K, x1 = 0.95	0.664
